Key:
[1] = tested on: Aphis Craccivora (cowpea aphid); assay: Example B11: translaminar activity against Aphis craccivora on French bean leaves; assay type: in vivo; conditions: 120 h, upper leaf side painted, aphids on lower side, 5 days
Method: Translaminar Activity Against Aphis Craccivora (Cowpea Aphid)
French bean leaves (Phaseolus vulgaris) are infested with about 20 mixed age individuals on the lower leaf side using clip cages. 1 day after the infestation, the upper side of the leaves is treated with the test solution by painting. 5 days later, samples are checked for mortality.

[2] = tested on: Myzus persicae (green peach aphid); assay: Example B13: drench activity against Myzus persicae, pea seedlings in field soil; conditions: 168 h, read-out: drench activity (mortality)
[3] = tested on: Nilaparvata lugens (brown rice planthopper); assay: Example B8: activity against Nilaparvata lugens, sprayed rice seedlings (larvicide, feeding/contact); conditions: in Oryza sativa, read-out: activity (mortality, growth regulation, effects on F1 generation)
[4] = tested on: Myzus persicae (green peach aphid); assay: Example B2: activity against Myzus persicae, pea seedling roots in test solution (systemic/feeding, curative); conditions: 144 h, read-out: activity (mortality)
[5] = tested on: Myzus persicae (green peach aphid); assay: Example B1: activity against Myzus persicae, sprayed sunflower leaf discs (feeding/residual contact, preventive); conditions: foliar, 144 h, read-out: activity (mortality)
[6] = tested on: Tetranychus urticae (two-spotted spider mite); assay: Example B4: activity against Tetranychus urticae, sprayed bean leaf discs (feeding/residual contact, preventive); conditions: foliar, 192 h, read-out: activity (egg, larval and adult mortality)
[7] = tested on: Aphis Craccivora (cowpea aphid); assay: Example B10: activity against Aphis craccivora, pea seedling roots in test solution (systemic/feeding); assay type: in vivo; conditions: 144 h, roots of infested pea seedlings in test solution, 6 days
Text: Activity Against Aphis Craccivora (Cowpea Aphid)
(Mixed Population, Systemic/Feeding)

[8] = tested on: Myzus persicae (green peach aphid); assay: Example B17: activity against Myzus persicae on sprayed pepper plants (feeding/residual contact); assay type: in vivo; conditions: 144 h, infested pepper plants sprayed, 6 days
[9] = tested on: Thrips tabaci (onion thrips); assay: Example B3: activity against Thrips tabaci, sprayed sunflower leaf discs (feeding/residual contact, preventive); assay type: in vivo; conditions: foliar, 144 h, mixed population, 6 days
Text: Activity Against Thrips tabaci (Onion Thrips)
(Mixed Population, Feeding/Residual Contact Activity, Preventive)

[10] = tested on: Bemisia tabaci (tobacco white fly); assay: Example B7: activity against Bemisia tabaci, sprayed bean plants (larvicide, contact/feeding); assay type: in vivo; conditions: 504 h, bean plants with N-2 nymphs sprayed, three weeks, read-out: activity (efficacy, number of emerged adults)
Method: Activity Against Bemisia tabaci (Tobacco White Fly)
(Larvicide, Contact/Feeding)
Bean plants are infested with 20-30 adults that were removed after a 4 day egg-laying period. After another 7 days, bean plants with hatched nymphs (N-2) are treated (2 replicates) with the test solutions in a spray chamber. Three weeks later, samples are checked for number of emerged adults. Efficacy was calculated by comparing number of emerged adults in treated and non treated samples.

Structure (SMILES) | mortality at 400 ppm [1] [%] | mortality at 25 ppm [2] [%] | mortality at 400 ppm [3] [%] | mortality at 400 ppm [4] [%] | mortality at 400 ppm [5] [%] | mortality at 400 ppm [6] [%] | mortality at 400 ppm [7] [%] | mortality at 200 ppm [8] [%] | mortality at 400 ppm [9] [%] | pest or weed control at 200 ppm [10] [%]
COCON1C(=O)C(c2cc(C)ccc2C)=C(OC(=O)C2CC2)C12CCN(OC)CC2 [P1.4, Cyclopropanecarboxylic acid 3-(2,5-dimethyl-phenyl)-8-methoxy-1-methoxymethoxy-2-oxo-1,8-diaza-spiro[4.5]dec-3-en-4-yl ester] | > 80 | > 80 | > 80 | > 80 | > 80 | > 80 | – | – | – | –
CCOC(=O)OC1=C(c2c(C)cc(C)cc2C)C(=O)N(OCC2(C)COC2)C12CCN(OC)CC2 [P1.23] | > 80 | > 80 | – | > 80 | – | – | > 80 | – | – | –
CCOC(=O)OC1=C(c2c(C)cc(C)cc2C)C(=O)N(OCC2CCCO2)C12CCN(OC)CC2 (stereo not drawn) [P1.24] | > 80 | > 80 | > 80 | > 80 | > 80 | > 80 | > 80 | ≥ 80 | – | –
CCOC(=O)OC1=C(c2c(C)cc(C)cc2C)C(=O)N(OCCOC2CCCCO2)C12CCN(OC)CC2 (stereo not drawn) [P1.25] | – | – | > 80 | – | – | > 80 | > 80 | – | – | –
CCOC(=O)OC1=C(c2c(C)cc(C)cc2C)C(=O)N(OC2CCCC2)C12CCN(OC)CC2 [P1.28] | – | – | > 80 | – | – | > 80 | – | – | – | –
CCOC(=O)OC1=C(c2ccc(C)cc2C)C(=O)N(OC2CCCO2)C12CCN(OC)CC2 (stereo not drawn) [P1.47] | – | – | – | > 80 | > 80 | > 80 | – | – | > 80 | –
CCOC(=O)OC1=C(c2c(C)ccc(C)c2C)C(=O)N(OCOC)C12CCN(OC)CC2 [P1.53] | > 80 | > 80 | > 80 | > 80 | – | – | > 80 | ≥ 80 | – | –
CCOC(=O)OC1=C(c2c(C)ccc(Cl)c2C)C(=O)N(OCOC)C12CCN(OC)CC2 [P1.55] | > 80 | > 80 | > 80 | > 80 | > 80 | – | > 80 | ≥ 80 | – | –
CCOC(=O)OC1=C(c2c(C)ccc(C)c2Cl)C(=O)N(OCOC)C12CCN(OC)CC2 [P1.59] | > 80 | > 80 | > 80 | > 80 | > 80 | > 80 | > 80 | – | – | –
CCOC(=O)OC1=C(c2c(C)cc(Br)cc2C)C(=O)N(OCOC)C12CCN(OC)CC2 [P1.62] | – | – | – | – | – | – | – | – | > 80 | –
CCOC(=O)OC1=C(c2c(C)cc(C)cc2Cl)C(=O)N(OC)C12CCN(OC)CC2 [P1.70] | > 80 | > 80 | > 80 | > 80 | > 80 | – | > 80 | – | – | –
CCOC(=O)OC1=C(c2c(C)cc(C)cc2C)C(=O)N(OCC2CCOC2)C12CCN(OC)CC2 (stereo not drawn) [P1.78] | > 80 | > 80 | > 80 | > 80 | – | > 80 | > 80 | ≥ 80 | – | > 80
CCOC(=O)OC1=C(c2c(C)cc(C)cc2C)C(=O)N(OCc2ccco2)C12CCN(OC)CC2 [P1.81] | – | – | – | > 80 | > 80 | > 80 | – | ≥ 80 | > 80 | –
CCOC(=O)OC1=C(c2c(C)cc(Br)cc2C)C(=O)N(OC)C12CCN(OC)CC2 [P1.88] | – | > 80 | > 80 | > 80 | > 80 | > 80 | – | ≥ 80 | – | –
CCOC(=O)OC1=C(c2c(C)cc(C)cc2Cl)C(=O)N(OC2CCCO2)C12CCN(OC)CC2 (stereo not drawn) [P1.107] | > 80 | > 80 | > 80 | > 80 | > 80 | – | > 80 | ≥ 80 | – | –
CON1CCC2(CC1)C(O)=C(c1cc(C)ccc1C)C(=O)N2OC [P2.1] | – | > 80 | – | > 80 | > 80 | – | – | – | – | –

Structure (SMILES) | mortality at 400 ppm [1] [%] | mortality at 25 ppm [2] [%] | mortality at 400 ppm [3] [%] | mortality at 400 ppm [4] [%] | mortality at 400 ppm [5] [%] | mortality at 400 ppm [6] [%] | mortality at 400 ppm [7] [%] | mortality at 200 ppm [8] [%] | mortality at 400 ppm [9] [%] | pest or weed control at 200 ppm [10] [%]
COCCON1C(=O)C(c2cc(C)ccc2C)=C(O)C12CCN(OC)CC2 [P2.3] | > 80 | > 80 | > 80 | > 80 | > 80 | – | – | ≥ 80 | – | –
CON1CCC2(CC1)C(O)=C(c1c(C)cc(C)cc1C)C(=O)N2OCC1(C)COC1 [P2.19] | > 80 | – | > 80 | > 80 | > 80 | > 80 | > 80 | ≥ 80 | – | –
CON1CCC2(CC1)C(O)=C(c1c(C)cc(C)cc1C)C(=O)N2OC1CCOCC1 [P2.21] | > 80 | > 80 | > 80 | > 80 | > 80 | > 80 | > 80 | ≥ 80 | – | –
CON1CCC2(CC1)C(O)=C(c1c(C)cc(C)cc1C)C(=O)N2OCC1CCCCO1 (stereo not drawn) [P2.23] | > 80 | – | > 80 | > 80 | > 80 | – | > 80 | – | – | –
CON1CCC2(CC1)C(O)=C(c1c(C)cc(C)cc1C)C(=O)N2OC1CCCC1 [P2.25] | – | – | > 80 | > 80 | > 80 | > 80 | – | – | – | –
CON1CCC2(CC1)C(O)=C(c1ccc(C)cc1C)C(=O)N2OC [P2.51] | – | – | – | > 80 | > 80 | – | – | – | > 80 | –
COCCON1C(=O)C(c2c(C)cc(C)cc2Br)=C(O)C12CCN(OC)CC2 [P2.57] | > 80 | > 80 | > 80 | > 80 | > 80 | > 80 | > 80 | – | – | –
CON1CCC2(CC1)C(O)=C(c1c(C)cc(Br)cc1C)C(=O)N2OC1CCCO1 (stereo not drawn) [P2.62] | – | – | – | > 80 | – | – | – | ≥ 80 | > 80 | –
CON1CCC2(CC1)C(O)=C(c1c(C)cc(C)cc1C)C(=O)N2OCc1ccoc1 [P2.64] | > 80 | > 80 | > 80 | > 80 | > 80 | > 80 | > 80 | ≥ 80 | – | > 80
CON1CCC2(CC1)C(O)=C(c1c(C)cc(C)cc1C)C(=O)N2OC1CCCCO1 (stereo not drawn) [P2.65] | – | – | – | > 80 | > 80 | > 80 | – | ≥ 80 | – | –
CON1CCC2(CC1)C(O)=C(c1c(C)cc(C)cc1Br)C(=O)N2OC1CCCO1 (stereo not drawn) [P2.69] | – | – | – | > 80 | > 80 | > 80 | – | ≥ 80 | – | –
COCCON1C(=O)C(c2c(C)cccc2C)=C(O)C12CCN(OC)CC2 [P2.77] | – | – | – | > 80 | > 80 | – | – | ≥ 80 | > 80 | –
CON1CCC2(CC1)C(O)=C(c1c(C)cc(C)cc1C)C(=O)N2OCC1CCOCC1 [P2.84] | – | – | – | > 80 | > 80 | – | – | – | > 80 | –
CON1CCC2(CC1)C(O)=C(c1c(C)cc(C)cc1C)C(=O)N2OCC1CCCC1 [P2.85] | – | – | – | > 80 | > 80 | > 80 | – | ≥ 80 | – | –
CON1CCC2(CC1)C(O)=C(c1c(C)cc(C)cc1Cl)C(=O)N2OC1CCCO1 (stereo not drawn) [P2.94] | – | – | – | > 80 | > 80 | > 80 | – | ≥ 80 | – | –
CON1CCC2(CC1)C(O)=C(c1c(C)cc(C)cc1C)C(=O)N2OCC1CCC1 [P2.97] | – | – | – | > 80 | > 80 | > 80 | – | ≥ 80 | – | –

From patent US20110224079A1, “SPIROHETEROCYCLIC N-OXYAMIDES AS PESTICIDES” (SYNGENTA CROP PROTECTION LLC, priority 2008, published 2011)
